Assay results from ChEMBL document CHEMBL5223191, “Discovery of a Novel Series of Imidazopyrazine Derivatives as Potent SHP2 Allosteric Inhibitors” (ACS Med Chem Lett, 2023).
≈ marks a conversion by molar mass, not a printed value. Each block holds one compound with its values, some of them ahead of it.

How the values were obtained:
[1] = biological target: T1, Tyrosine-protein phosphatase non-receptor type 11 (Homo sapiens, UniProt Q06124); assay: Allosteric inhibition of IRS1 peptide-activated human recombinant SHP2 (Met1 to Leu525) expressed in Escherichia coli assessed as inhibition of dephosphorylation of 6,8-difluoro-4-methylumbelliferyl phosphate using DiFMUP as substrate preincubated with enzyme for 30 mins followed by substrate addition and measured after 30 mins by DiFMUP assay
T1 sequence (Q06124 whole entry): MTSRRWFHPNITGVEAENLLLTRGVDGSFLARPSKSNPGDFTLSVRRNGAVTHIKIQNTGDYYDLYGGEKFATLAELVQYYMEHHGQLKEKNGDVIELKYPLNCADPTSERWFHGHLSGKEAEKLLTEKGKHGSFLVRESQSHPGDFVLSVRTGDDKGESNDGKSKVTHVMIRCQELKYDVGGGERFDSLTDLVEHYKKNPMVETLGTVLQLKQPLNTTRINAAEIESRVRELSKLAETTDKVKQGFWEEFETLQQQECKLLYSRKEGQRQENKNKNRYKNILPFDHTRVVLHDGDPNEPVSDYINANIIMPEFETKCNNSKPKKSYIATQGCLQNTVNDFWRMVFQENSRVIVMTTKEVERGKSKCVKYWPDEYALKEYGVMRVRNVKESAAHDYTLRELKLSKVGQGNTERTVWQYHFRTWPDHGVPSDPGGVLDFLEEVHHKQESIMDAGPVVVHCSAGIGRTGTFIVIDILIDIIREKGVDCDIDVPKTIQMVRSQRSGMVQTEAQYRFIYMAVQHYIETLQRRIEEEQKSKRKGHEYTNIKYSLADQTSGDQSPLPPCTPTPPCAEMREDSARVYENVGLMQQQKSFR

[2] = biological target: T1, Tyrosine-protein phosphatase non-receptor type 11; assay: Allosteric inhibition of SHP2 in human KYSE-520 cells assessed as inhibition of ERK phosphorylation incubated for 2 hrs by TR-FRET assay; format: cell-based, KYSE-520 cell line
[3] = biological target: Voltage-gated inwardly rectifying potassium channel KCNH2 (Homo sapiens, UniProt Q12809); assay: Displacement of E-4031 from hERG by fluorescence polarization assay; format: toxicity
Chain of Voltage-gated inwardly rectifying potassium channel KCNH2 (Q12809 whole entry): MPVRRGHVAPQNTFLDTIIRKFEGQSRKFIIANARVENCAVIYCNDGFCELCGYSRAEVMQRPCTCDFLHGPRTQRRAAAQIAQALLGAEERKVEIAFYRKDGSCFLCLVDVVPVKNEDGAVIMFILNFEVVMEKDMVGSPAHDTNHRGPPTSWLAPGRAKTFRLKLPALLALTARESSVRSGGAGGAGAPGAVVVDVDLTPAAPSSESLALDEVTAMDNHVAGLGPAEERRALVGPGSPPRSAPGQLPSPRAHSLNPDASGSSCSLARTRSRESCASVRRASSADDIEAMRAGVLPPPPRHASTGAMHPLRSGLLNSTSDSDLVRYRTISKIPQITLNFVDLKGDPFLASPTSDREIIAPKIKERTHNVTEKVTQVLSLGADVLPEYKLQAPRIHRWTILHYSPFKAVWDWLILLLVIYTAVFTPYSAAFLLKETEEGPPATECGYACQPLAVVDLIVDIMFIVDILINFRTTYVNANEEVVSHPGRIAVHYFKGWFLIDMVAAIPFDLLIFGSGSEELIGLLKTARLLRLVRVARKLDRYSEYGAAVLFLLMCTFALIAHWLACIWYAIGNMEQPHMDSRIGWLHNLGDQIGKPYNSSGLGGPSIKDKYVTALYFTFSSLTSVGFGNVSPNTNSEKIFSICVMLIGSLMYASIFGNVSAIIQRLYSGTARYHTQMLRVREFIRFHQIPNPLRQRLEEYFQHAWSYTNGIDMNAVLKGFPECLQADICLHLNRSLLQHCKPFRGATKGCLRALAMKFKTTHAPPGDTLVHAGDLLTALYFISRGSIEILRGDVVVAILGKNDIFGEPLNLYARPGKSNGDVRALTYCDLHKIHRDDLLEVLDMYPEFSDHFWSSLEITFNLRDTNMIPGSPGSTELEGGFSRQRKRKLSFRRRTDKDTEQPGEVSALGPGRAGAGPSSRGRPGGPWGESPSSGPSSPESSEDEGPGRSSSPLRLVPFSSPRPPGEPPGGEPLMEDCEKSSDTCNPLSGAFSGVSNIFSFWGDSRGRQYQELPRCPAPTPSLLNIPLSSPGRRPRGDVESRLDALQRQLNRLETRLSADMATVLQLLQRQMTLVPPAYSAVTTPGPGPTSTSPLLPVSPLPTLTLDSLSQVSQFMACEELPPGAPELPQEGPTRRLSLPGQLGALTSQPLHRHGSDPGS

[4] = test system: KYSE-520 cell line; assay: Antiproliferative activity against EGFR-amplified human KYSE-520 cells assessed as inhibition of cell proliferation incubated for 72 hrs by CellTiter-Glo reagent based luminescence assay; format: functional; details: KYSE-520, 72 h
[5] = Drug metabolism in human liver microsomes assessed as 1'-(6-((2-(trifluoromethyl)pyridin-3-yl)sulfonyl)-1H-imidazo[4,5-b]pyrazin-2-yl)-1,3-dihydrospiro[indene-2,4'-piperidin]-1-amine formation at 1 uM measured after 60 mins in presence of NADPH by MetID study analysis; format: ADME, Microsome
[6] = Drug metabolism in C57BL/6 mouse liver microsomes assessed as oxidised metabolite formation at 1 uM measured after 60 mins in presence of NADPH by MetID study analysis; format: ADME, Microsome; details: 1 h
[7] = biological target: T1, Tyrosine-protein phosphatase non-receptor type 11; assay: Binding affinity to N-terminal biotinylated AviTag-G4SG4S-tagged recombinant SHP2 (1 to 525 residues) (unknown origin) by SPR analysis
[8] = Volume of distribution at steady state in Sprague-Dawley rat at 0.5 mg/kg, iv measured for 24 hrs by LC-MS/MS analysis; format: ADME, organism-based; details: in vivo, read-out: Vdss
[9] = Kinetic solubility of the compound in phosphate buffer saline at pH 7.4 at 200 uM by LC-UV analysis; format: physicochemical; details: read-out: Kinetic_solubility
[10] = Drug metabolism in C57BL/6 mouse liver microsomes assessed as 1'-(6-((2-(trifluoromethyl)pyridin-3-yl)sulfonyl)-1H-imidazo[4,5-b]pyrazin-2-yl)-1,3-dihydrospiro[indene-2,4'-piperidin]-1-amine formation at 1 uM measured after 60 mins in presence of NADPH by MetID study analysis; format: ADME, Microsome
[11] = Intrinsic clearance in Sprague-Dawley rat at 0.5 mg/kg, iv measured for 24 hrs by LC-MS/MS analysis; format: ADME, organism-based; details: in vivo
[12] = Apparent passive permeability of the compound in phosphate buffer saline at pH 7.4 at 5 uM incubated for 4 hrs by PAMPA assay; format: ADME
[13] = Drug metabolism in human liver microsomes assessed as oxidised metabolite formation at 1 uM measured after 60 mins in presence of NADPH by MetID study analysis; format: ADME, Microsome; details: 1 h
[14] = Intrinsic clearance in human liver microsomes at 1 uM measured for 60 mins in presence of NADPH by LC-MS/MS analysis; format: ADME, Microsome; details: read-out: CLH
[15] = Intrinsic clearance in C57BL/6 mouse liver microsomes at 1 uM measured for 60 mins in presence of NADPH by LC-MS/MS analysis; format: ADME, Microsome; details: read-out: CLH
[16] = Half life in Sprague-Dawley rat at 0.5 mg/kg, iv measured for 24 hrs by LC-MS/MS analysis; format: ADME, organism-based; details: in vivo
[17] = Oral bioavailability in BALB/c mouse at 50 mg/kg measured for 24 hrs by LC-MS/MS analysis; format: ADME, organism-based; details: in vivo
[18] = Half life in BALB/c mouse at 1 mg/kg, iv measured for 24 hrs by LC-MS/MS analysis; format: ADME, organism-based; details: in vivo
[19] = Volume of distribution at steady state in BALB/c mouse at 1 mg/kg, iv measured for 24 hrs by LC-MS/MS analysis; format: ADME, organism-based; details: in vivo, read-out: Vdss
[20] = Intrinsic clearance in BALB/c mouse at 1 mg/kg, iv measured for 24 hrs by LC-MS/MS analysis; format: ADME, organism-based; details: in vivo

IC50 [1]: 142 nM
SMILES: CC1(N)CCN(c2cnc(Sc3cccnc3C(F)(F)F)c(N)n2)CC1

IC50 [1]: 74 nM
EC50 [2]: 1760 nM
SMILES: CC1(N)CCN(c2nc3ncc(Sc4cccnc4C(F)(F)F)nc3[nH]2)CC1

IC50 [1]: > 33000 nM
SMILES: CC1(N)CCN(c2nc3ncc(Sc4cccnc4C(F)(F)F)cc3[nH]2)CC1

IC50 [1]: 290 nM
SMILES: N[C@@H]1CCCC12CCN(c1nc3nc(Sc4cccnc4C(F)(F)F)cnc3[nH]1)CC2

IC50 [1]: 521 nM
SMILES: CC1(N)CCN(c2nc3ncc(Oc4cccc(Cl)c4Cl)nc3[nH]2)CC1

IC50 [1]: 664 nM
SMILES: NC1CCN(c2nc3nc(Sc4cccnc4C(F)(F)F)cnc3[nH]2)CC1

SMILES: Nc1nccc(Sc2cnc3[nH]c(N4CCC5(CC4)Cc4ccccc4[C@H]5N)nc3n2)c1Cl
IC50 [1]: 4 nM
IC50 [3]: 900 nM
EC50 [4]: 598 nM
EC50 [2]: 75 nM

IC50 [1]: 808 nM
SMILES: CC1(N)CCN(c2nc3cnc(Sc4cccnc4C(F)(F)F)nc3[nH]2)CC1

SMILES: N[C@@H]1c2ccccc2CC12CCN(c1nc3nc(Sc4cccnc4C(F)(F)F)cnc3[nH]1)CC2
Drug metabolism [5]: Metabolite_Detected
Drug metabolism [6]: Metabolite_Detected
Kd [7]: 0.6 nM
Vd [8]: 0.4 L/kg
solubility kinetic at 200 µM [9]: 154 µM (≈ 76.6 µg/mL)
IC50 [1]: 5 nM
Drug metabolism [10]: Metabolite_Detected
CL [11]: 24 mL/min/kg
IC50 [3]: 1800 nM
Papp at 4 h, 5 µM [12]: 0.027 ×10⁻⁶ cm/s
EC50 [4]: 547 nM
EC50 [2]: 42 nM
Drug metabolism [13]: Metabolite_Detected
CLint scaled at 1 µM [14]: 74 mL/min/kg
CLint scaled at 1 µM [15]: 297 mL/min/kg
half-life [16]: 0.4 h

IC50 [1]: 1180 nM
SMILES: CNC1CCN(c2nc3nc(Sc4cccnc4C(F)(F)F)cnc3[nH]2)CC1

SMILES: CNc1nccc(Sc2cnc3[nH]c(N4CCC5(CC4)Cc4ccccc4[C@H]5N)nc3n2)c1Cl
bioavailability [17]: 7%
Vd [8]: 1.9 L/kg
IC50 [1]: 6 nM
CL [11]: 17 mL/min/kg
IC50 [3]: 4200 nM
Papp at 4 h, 5 µM [12]: 0.02 ×10⁻⁶ cm/s
EC50 [4]: 520 nM
half-life [18]: > 4 h
Vd [19]: 1.8 L/kg
CL [20]: 14 mL/min/kg
EC50 [2]: 37 nM
half-life [16]: > 2.3 h

IC50 [1]: > 64000 nM
SMILES: CC1(N)CCN(c2nc3ncc(Sc4cccnc4C(F)(F)F)nc3s2)CC1

IC50 [1]: 436 nM
SMILES: Cc1nc2nc(N3CCC(C)(N)CC3)[nH]c2nc1Sc1cccc(Cl)c1Cl

IC50 [1]: 409 nM
SMILES: Cn1c(N2CCC(C)(N)CC2)nc2nc(Sc3cccnc3C(F)(F)F)cnc21

IC50 [1]: > 16000 nM
SMILES: CC1(N)CCN(c2nc3ccc(Sc4cccnc4C(F)(F)F)cc3[nH]2)CC1

SMILES: N[C@@H]1c2ccccc2CC12CCN(c1nc3nc(Sc4ccncc4Cl)cnc3[nH]1)CC2
IC50 [1]: 3 nM
IC50 [3]: 3100 nM
EC50 [4]: 325 nM
EC50 [2]: 51 nM

IC50 [1]: 887 nM
SMILES: CC1(N)CCN(c2nc3nc(Sc4cccnc4C(F)(F)F)cnc3s2)CC1

IC50 [1]: 47 nM
SMILES: CC1(N)CCN(c2nc3ncc(Sc4cccc(Cl)c4Cl)nc3[nH]2)CC1

IC50 [1]: 64 nM
EC50 [2]: 2850 nM
SMILES: C[C@@H]1OCC2(CCN(c3nc4nc(Sc5cccnc5C(F)(F)F)cnc4[nH]3)CC2)[C@@H]1N

IC50 [1]: 797 nM
SMILES: CC1(N)CCN(c2nc3ncc(-c4cccc(Cl)c4Cl)nc3[nH]2)CC1

IC50 [1]: 1360 nM
SMILES: Cn1c(N2CCC(C)(N)CC2)nc2ncc(Sc3cccnc3C(F)(F)F)nc21

IC50 [1]: 435 nM
SMILES: NC1CCCN(c2nc3nc(Sc4cccnc4C(F)(F)F)cnc3[nH]2)C1 (stereo unspecified)
